In paper PMC11672551, “Cyclic Ruthenium-Peptide Prodrugs Penetrate the Blood–Brain Barrier and Attack Glioblastoma upon Light Activation in Orthotopic Zebrafish Tumor Models” (ACS Central Science, 2024):

Legend:
[1] = test system: U87MG-wt and U87MG-kd (ITGAV, integrin αV knockdown) cells; assay: Cellular ruthenium uptake by ICP-MS in wild type vs ITGAV knockdown cells; format: cell-based, human; conditions: normoxia, 10 μM, 3 h, 2D monolayers, n = 3
Experimental: Figure 2 Integrin targeting by Ru-p(HH), Ru-p(MH), and Ru-p(MM)in vitro. (a, b) Expression of integrin (a) αVβ3 and (b) αVβ5 in MCF7, PC-3, A549, MDA-MB-231, U87MG, and U87MG-kd cell lines under normoxic (21% O2) or hypoxic (1% O2) conditions. Note a: ITGAV was knockdown; see Methods. Bars represent the fluorescence intensity of the cells incubated with either anti-integrin αVβ3 or αVβ5 monoclonal antibodies followed by a secondary antibody conjugated to Alexa-Fluor 488. Error: standard deviation (SD), n = 2. (c) Ruthenium accumulation (μg Ru/million cells) of wild type U87MG (U87MG-wt) and ITGAV knockdown U87MG (U87MG-kd) cell lines after treatment with medium (control), Ru-p(HH), Ru-p(MH), Ru-p(MM), or [Ru(Ph2phen)2(bpy)]Cl2 (normoxia, 10 μM, 3 h). Error: standard deviation (SD), n = 3. Two-way ANOVA was used to determine the significance of the comparisons of data (*P < 0.05, **P < 0.01, ***P < 0.001, ****P < 0.0001).
In order to check whether the integrins […] were responsible for the cellular uptake of these conjugates, an ITGAV (integrin αV) knockdown U87MG cell line (U87MG-kd, Figure 2a,b) was prepared, and the cellular ruthenium uptake was measured using ICP-MS in wild type and knockdown U87MG 2D cell monolayers (Figure 2c). […]

[2] = test system: U87MG tumor cells in zebrafish hindbrain; assay: Tumor targeting in zebrafish embryos, colocalization of drug emission with GFP-U87MG cells in the hindbrain; format: in vivo; conditions: 2 pmol, line-scan profiles of high-resolution images (Figure S35)
Experimental: In a second step, the targeting of GBM cells by Ru-p(HH) was tested by detecting the colocalization of the red-emissive drug (excitation: 488 nm; emission detector window: 630–774 nm) with GFP-U87MG cells (excitation: 488 nm; emission: 485–575 nm). To clearly see the distribution of the drug and of the cancer cells in zebrafish, we used Tg(kdrl:mTurquoise)^hu7185Tg embryos. In this transgenic fish line, the blood vessels of the embryos are labeled by the mTurquoise fluorescent protein, which can be excited at 405 nm and emits at 464–480 nm. As shown in Figure 5a and Figure S33a, when only tumor cells were injected into the hindbrain of the zebrafish embryo, GFP was the only signal detected. […] By calculating the distribution and intensity of Ru-p(HH) emission in the region of U87MG cells in the brain, the PCC and MOC values for the top-down view of the hindbrain were determined to be 0.49 and 0.79, respectively, while those in the side images were 0.77 and 0.66 (Figure 5b, Figure S33b).
Figure 5 Targeting a U87MG brain tumor with Ru-p(HH)in vivo. […] The Z-axis is the cell fluorescence intensity (green) and the drug fluorescence intensity (purple). […] Both PCC and MOC are calculated and are shown in the graph. […]

[Ru(Ph2phen)2(bpy)]Cl2 was tested, and the “cellular ruthenium uptake in U87MG-kd compared to wild type U87MG” value [1] was “not lowered”, the “MOC between prodrug and tumor, comparison with RGD-free control” value [2] was 0.35 and the “PCC between prodrug and tumor, comparison with RGD-free control” value [2] was −0.2.
